Assay results published in patent publication US5525626A (priority 1989, dated 1996).
pIC50: −log10 of the molar value.

Experiments:
Assay in all cases: 3H-thymidine assay
Type in all cases: cell-based
K-562 leukemic cells = settings: Homo sapiens, K562
Protocol: (§1) The cell lines were cultivated as indicated in Example 1.
(§2) The antiproliferative effect of the 1,2-benzopyrone derivatives according to the invention on the tumor cell lines in each case was shown with the help of the ^3 H-thymidine insertion and with reference to growth curves.
(§3) In a 24-well-plate, in each case 10^4 cells of the line to be investigated were inoculated per well. Approximately 48 hours later the cells were half-confluent; the medium was then changed and replaced by a medium containing the active substance in question (cf Table 3). After a further 48 hours 0.25 μCi ^3 H-thymidine (Ammersham) was added to each well and the cells were incubated for a further 24 hours. Subsequently the cultures were washed twice with ice-cold PBS and the high-molecular-weight ^3 H-radioactivity was precipitated with 5% trichloroacetic acid for one hour at 4° C. After the washing of the cells in PBS the ^3 H-radioactivity was solubilized with 0.3M NaOH and measured in the counter. The growth-inhibition was determined by comparing the thymidine insertion of the cells treated with active substance with untreated cells.
(§4) The active substance concentration in each case was so chosen that ^3 H-thymidine insertion was 50% inhibited. The active substance concentrations used under this aspect for the active substances and cell lines in each case are given in table 4 below in μM/ml, […]

CAKI-1 cells = settings: Homo sapiens, CAKI-1
Protocol: as §1, §2, §3, §4

At T 20 = settings: Mus musculus, AtT20
Protocol: as §1, §2, §3, §4

[1] = tested on: MCF-7 breast cancer cells; settings: Homo sapiens, MCF7
Protocol: as §1, §2, §3, §4

HCV cells = tested on: HCV cells
[2] = tested on: Tp 483 MG glioblastoma cells
[3] = tested on: Tp 410 N neuroblastoma cells; settings: Homo sapiens, Neuroblastoma cell
CAKI-2 cells = settings: Homo sapiens, CAKI-2
Protocol: as §1, §2
as §3, with “After a further 48 hours 0.25 μCi ^3 H-thymidine (Ammersham) was added to each well and the cells were incubated for a further 24 hours.” left out
as §4

[4] = tested on: GV-1 prostate carcinoma cells
[5] = 1 μM/ml, read-out: 3H-thymidine tracer (%) of control
[6] = 2 μM/ml, read-out: 3H-thymidine tracer (%) of control
[7] = 4 μM/ml, read-out: 3H-thymidine tracer (%) of control
[8] = 8 μM/ml, read-out: 3H-thymidine tracer (%) of control
[9] = 16 μM/ml, read-out: 3H-thymidine tracer (%) of control
[10] = 25 μM/ml, read-out: 3H-thymidine tracer (%) of control
[11] = 50 μM/ml, read-out: 3H-thymidine tracer (%) of control
[12] = 100 μM/ml, read-out: 3H-thymidine tracer (%) of control
[13] = 250 μM/ml, read-out: 3H-thymidine tracer (%) of control
[14] = 500 μM/ml, read-out: 3H-thymidine tracer (%) of control
[15] = Table 4, read-out: active substance concentration at which 3H-thymidine insertion was 50% inhibited
[16] = 150 μM/ml, read-out: 3H-thymidine tracer (%) of control
[17] = Table 4, *: maximum usable dosage, no 50% inhibition, read-out: active substance concentration at which 3H-thymidine insertion was 50% inhibited
[18] = 1 μM/ml, read-out: 3H-thymidine insertion (%) of control
[19] = 2 μM/ml, read-out: 3H-thymidine insertion (%) of control
[20] = 4 μM/ml, read-out: 3H-thymidine insertion (%) of control
[21] = 8 μM/ml, read-out: 3H-thymidine insertion (%) of control
[22] = 16 μM/ml, read-out: 3H-thymidine insertion (%) of control
[23] = 25 μM/ml, read-out: 3H-thymidine insertion (%) of control
[24] = 50 μM/ml, read-out: 3H-thymidine insertion (%) of control
[25] = 100 μM/ml, read-out: 3H-thymidine insertion (%) of control
[26] = 250 μM/ml, read-out: 3H-thymidine insertion (%) of control
[27] = 500 μM/ml, read-out: 3H-thymidine insertion (%) of control

O=c1ccc2ccc(O)cc2o1 [7-OH-1,2-BP, 7-hydroxy-1,2-benzopyrone]
activity at 1 µM (K-562 leukemic cells; [5]): 100%
activity at 2 µM (K-562 leukemic cells; [6]): 91%
activity at 4 µM (K-562 leukemic cells; [7]): 84%
activity at 8 µM (K-562 leukemic cells; [8]): 76%
activity at 16 µM (K-562 leukemic cells; [9]): 67%
activity at 25 µM (K-562 leukemic cells; [10]): 53%
activity at 50 µM (K-562 leukemic cells; [11]): 47%
activity at 100 µM (K-562 leukemic cells; [12]): 42%
activity at 250 µM (K-562 leukemic cells; [13]): 39%
activity at 500 µM (K-562 leukemic cells; [14]): 37%
pIC50 (K-562 leukemic cells; [15]): 4.30
activity at 1 µM (CAKI-1 cells; [5]): 100%
activity at 2 µM (CAKI-1 cells; [6]): 98%
activity at 4 µM (CAKI-1 cells; [7]): 90%
activity at 8 µM (CAKI-1 cells; [8]): 81%
activity at 16 µM (CAKI-1 cells; [9]): 76%
activity at 25 µM (CAKI-1 cells; [10]): 62%
activity at 50 µM (CAKI-1 cells; [11]): 57%
activity at 100 µM (CAKI-1 cells; [12]): 49%
activity at 150 µM (CAKI-1 cells; [16]): 44%
activity at 500 µM (CAKI-1 cells; [14]): 40%
pIC50 (CAKI-1 cells; [17]): 4.00
activity at 1 µM (At T 20; [5]): 98%
activity at 2 µM (At T 20; [6]): 89%
activity at 4 µM (At T 20; [7]): 85%
activity at 8 µM (At T 20; [8]): 78%
activity at 16 µM (At T 20; [9]): 65%
activity at 25 µM (At T 20; [10]): 60%
activity at 50 µM (At T 20; [11]): 62%
activity at 100 µM (At T 20; [12]): 44%
activity at 250 µM (At T 20; [13]): 38%
activity at 500 µM (At T 20; [14]): 31%
pIC50 (At T 20; [15]): 4.30
activity at 1 µM [1, 5]: 98%
activity at 2 µM [1, 6]: 94%
activity at 4 µM [1, 7]: 88%
activity at 8 µM [1, 8]: 82%
activity at 16 µM [1, 9]: 75%
activity at 25 µM [1, 10]: 69%
activity at 50 µM [1, 11]: 62%
activity at 100 µM [1, 12]: 51%
activity at 250 µM [1, 13]: 43%
activity at 500 µM [1, 14]: 29%
pIC50 [1, 17]: 4.00
activity at 1 µM (HCV cells; [5]): 98%
activity at 2 µM (HCV cells; [6]): 95%
activity at 4 µM (HCV cells; [7]): 88%
activity at 8 µM (HCV cells; [8]): 82%
activity at 16 µM (HCV cells; [9]): 74%
activity at 25 µM (HCV cells; [10]): 69%
activity at 50 µM (HCV cells; [11]): 63%
activity at 250 µM (HCV cells; [13]): 57%
activity at 500 µM (HCV cells; [14]): 50%
pIC50 (HCV cells; [17]): 3.30
activity at 1 µM [2, 18]: 97%
activity at 2 µM [2, 19]: 95%
activity at 4 µM [2, 20]: 89%
activity at 8 µM [2, 21]: 81%
activity at 16 µM [2, 22]: 69%
activity at 25 µM [2, 23]: 66%
activity at 50 µM [2, 24]: 39%
activity at 100 µM [2, 25]: 32%
activity at 250 µM [2, 26]: 27%
activity at 500 µM [2, 27]: 25%
pIC50 [2, 15]: 4.60
activity at 1 µM [3, 18]: 96%
activity at 2 µM [3, 19]: 91%
activity at 4 µM [3, 20]: 80%
activity at 8 µM [3, 21]: 73%
activity at 16 µM [3, 22]: 67%
activity at 25 µM [3, 23]: 50%
activity at 50 µM [3, 24]: 48%
activity at 100 µM [3, 25]: 42%
activity at 250 µM [3, 26]: 36%
activity at 500 µM [3, 27]: 21%
pIC50 [3, 15]: 4.60
activity at 1 µM (CAKI-2 cells; [5]): 95%
activity at 2 µM (CAKI-2 cells; [6]): 92%
activity at 4 µM (CAKI-2 cells; [7]): 88%
activity at 8 µM (CAKI-2 cells; [8]): 77%
activity at 16 µM (CAKI-2 cells; [9]): 71%
activity at 25 µM (CAKI-2 cells; [10]): 65%
activity at 50 µM (CAKI-2 cells; [11]): 54%
activity at 100 µM (CAKI-2 cells; [12]): 46%
activity at 150 µM (CAKI-2 cells; [16]): 39%
activity at 500 µM (CAKI-2 cells; [14]): 35%
pIC50 (CAKI-2 cells; [17]): 4.12
activity at 1 µM [4, 5]: 100%
activity at 2 µM [4, 6]: 89%
activity at 4 µM [4, 7]: 83%
activity at 8 µM [4, 8]: 75%
activity at 16 µM [4, 9]: 69%
activity at 25 µM [4, 10]: 63%
activity at 50 µM [4, 11]: 51%
activity at 100 µM [4, 12]: 39%
activity at 250 µM [4, 13]: 36%
activity at 500 µM [4, 14]: 27%
pIC50 [4, 15]: 4.12
